Laboratory results taken from patent US20140041064A1, “COMPOSITIONS AND METHODS FOR I[…] FACTORS AND ANTI-FUNGAL AGENTS” (WORCESTER POLYTECHNIC INSTITUTE, priority 2011, published 2014).

Columns and labels:
[1] = tested on: Macrophage cell line RAW 264.7; conditions: 0.05 μM DPI; RAW 264.7 macrophages co-cultured overnight with wild type, cap1Δ/Δ and CAP1-complemented C. albicans (1:15)
Method: Macrophage cell line RAW 264.7 (ATCC) was used in the assay. The cell line was maintained in DMEM supplemented with 10% fetal bovine serum (FBS). […] Briefly, macrophages on reaching 80-90% confluence were scraped and brought up in DMEM supplemented with 10% FBS and 100 U/ml penicillin and 100 μg/ml streptomycin. 2×10^6 macrophage cells were plated in a 35 mm^2 plate and allowed to adhere for 5 hours. Candida strains were grown overnight at 37° C., diluted 1:10, and allowed to grow for another 5 hours. Candida cells were then washed with supplemented DMEM and were added to the plates containing macrophages in a ratio of 1:15 macrophage and to a final volume of 2 ml. Yeast strain was also grown in parallel without macrophages to calculate % survival. The plates were incubated overnight at 37° C. and 5% CO2. Cells were then brought up to 24 mls in a tube using 0.05% Triton X-100 (v/v) in water to osmotically lyse the macrophage cells. Dilutions were prepared and plated on a YPD plate and grown overnight at 37° C. Colony forming units (CFU) were counted and percentage survival was calculated by taking the ratio of CFU from co culture of Candida and macrophage to the CFU obtained for Candida alone.
Experiments involving diphenyleneiodium chloride (DPI) were performed as mentioned above but with the addition of 0.05 μM DPI from a 31.8 mM stock solution in DMSO. […]

[2] = tested on: C. albicans; conditions: hydrogen peroxide at a final concentration of 2 mM; 20° C., 30° C. and 37° C.
Method: In vitro, Cap1 regulates the response to oxidative stress, which is a key component of the innate immune response to fungi (Alarco et al., J. Bacteriol. 181:700-708.3, 1999); Enjalbert et al., Mol. Biol. Cell. 17:1018-1032, 2006; Wang et al., Free Radic. Biol. Med. 40:1201-1209, 2006; Zhang et al., Mol. Microbiol. 36:618-629, 2000) and is induced in the presence of neutrophils (Fradin et al., Mol. Microbiol. 56:397-415, 2005). To correlate these studies performed at 30° C. and 37° C., respectively, with our in vivo infection performed at 20° C., we compared the ROS sensitivity profiles of cap1Δ/Δ, CAP1-complemented and the cognate wild type strain at 20° C., 30° C. and 37° C.

Structure (SMILES)	CFUs of C. albicans recovered from macrophages [1]	growth of CAP1-complemented strain [2]	growth of reconstructed cap1Δ mutant [2]
c1ccc2c(c1)[I+]c1ccccc1-2 [DPI, Diphenyleneiodonium chloride]	no difference in CFUs recovered from macrophages between the three strains	–	–
OO [hydrogen peroxide]	–	same growth as the wild type	failed to grow
